Columns and labels:
sensor proteins = assay: Sensor protein aggregation in the presence of compound but in the absence of HTTex1Q48 seeds; format: biochemical, human; details: compound present, no HTTex1Q48 seeds; residual concentration
Procedure: (§1) Purified GST-Ex1Q48-CyPet and GST-Ex1Q48-YPet were diluted in aggregation buffer at an equimolar ratio to a final concentration of 1.2 μM (0.6 μM each) with 14 U PSP per nmol sensor proteins if not stated otherwise. The solution was then mixed with preformed aggregates of Ex1Q48 (seeds) at varying concentrations with or without prior sonication and transferred to a black 384-well plate (with a final reaction volume of 30 μl per well and a sensor protein concentration of 1.2 μM). For quantification of seeding-competent HTT species in tissue samples, the sensor-protein mixture was supplemented with up to 10% (v/v) tissue homogenate. Fluorescence signals were measured every 20 min following a 5 s pulse of vertical shaking with a Tecan M200 fluorescence plate reader at 25° C. for up to 48 h. CyPet donor fluorescence was measured at excitation (Ex): 435 nm/emission (Em): 475 nm; YPet acceptor fluorescence at Ex: 500 nm/Em: 530 nm; the FRET channel (DA) was recorded at Ex: 435 nm/Em: 530 nm. Raw signals were processed by subtracting the background fluorescence of unlabeled Ex1Q48 in all channels. […] In brief, the FRET efficiency E (in %) was calculated as follows: E=(DA-cDxDD-cAxAA)/AA with DD=donor channel signal and AA=acceptor channel signal. […]

HTTex1Q48 seeds = target: T1, HTTex1Q48 seeds (Homo sapiens, UniProt P42858, INS38QQQQQQQQQQQQQQQQQQQQQQQQQQQ/P65L/V80A); assay: FRASE assay of HTTex1Q48 seeds pre-incubated with compound; format: biochemical; details: preformed, sonicated HTTex1Q48 aggregates incubated with compound in 200-fold molar excess at 25° C. for 20 hours; compared to seeds incubated with DMSO
T1 construct: GST (N, cleaved yes); made in house; host or cells: E. coli BL21-CodonPlus-RP
T1 sequence (P42858 with tags, fused parts or gaps with the stated changes): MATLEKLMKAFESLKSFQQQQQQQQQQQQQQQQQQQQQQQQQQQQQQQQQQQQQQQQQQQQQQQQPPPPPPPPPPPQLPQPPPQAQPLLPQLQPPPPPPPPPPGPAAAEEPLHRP
Procedure: Httex1Q48 seeds were pre-incubated with 04 in 200-fold molar excess at 25° C. for 20 h and subsequently analyzed for their seeding activity using FRASE assays. (A) Aggregation profiles of sensor proteins in the presence or absence of O4 treated seeds and respective controls. Data are mean±SD of technical triplicates.
as §1, with “The solution was then mixed with preformed aggregates of Ex1Q48 (seeds) at varying concentrations with or without prior sonication and transferred to a black 384-well plate (with a final reaction volume of 30 μl per well and a sensor protein concentration of 1.2 μM).” left out

HTTex1Q48 = HTTex1Q48 (Homo sapiens, UniProt P42858, INS38QQQQQQQQQQQQQQQQQQQQQQQQQQQ/P65L/V80A); details: previously shown (Wagner et al., 2018); cited from earlier work
Chain of HTTex1Q48 (P42858 with tags, fused parts or gaps with the stated changes): as the sequence (P42858 with tags, fused parts or gaps with the stated changes) above

Ex1Q48-CyPet/-YPet = assay: FRASE assay: effect of added preformed fibrils/seeds on Ex1Q48-CyPet/-YPet polymerization; format: biochemical, human; details: non-polyQ fibrillar aggregates produced in vitro; sensor 1:1 mixture, total conc. 1.2 μM
Procedure: (B) Effects of small, preformed Ex1Q48 seeds (1250 kDa) on Ex1Q48-CyPet and -YPet (1:1 mixture, total conc. 1.2 μM) co-aggregation. Data are mean±SEM (n=5).
(D) Effects of non-polyQ fibrils on Ex1Q48-CyPet and -YPet (1:1 mixture, total conc. 1.2 μM) co-aggregation. Data are mean±SD of triplicates.
Spontaneous Ex1Q48 aggregation was initiated by addition of 14 U PreScission protease (GE Healthcare) per nmol purified GST-Ex1Q48 fusion protein (2 μM). The aggregation reaction was performed in 50 mM Tris-HCl pH 7.4, 150 mM NaCl, 1 mM EDTA and 1 mM DTT at 25° C. and constant agitation (450 rpm) for 24 h. […] K2Q48P6 protein for seeding experiments was prepared from GST-K2Q48P6 fusion protein using the same protocol. ΔN17Q48+6PRD protein for seeding experiments was prepared from GST-ΔN17Q48+6PRD fusion protein using the same protocol. ΔN17Q40+6PRD protein for seeding experiments was prepared from GST-ΔN17Q40+6PRD fusion protein using the same protocol. Synthetic human IAPP was aggregated as described previously (Gao et al., 2015). Lyophilized α-Syn was dissolved in PBS at 500 μM and centrifuged (4° C., 265.000×g) after a 5 min sonication step to remove aggregated material. The supernatant was incubated for 7 d at 37° C. under constant shaking in the presence of a single glass bead. Tau40 was aggregated for 6 d at 37° C. under constant shaking in 100 mM sodium acetate, pH 7.4, and 1 mM DTT in the presence of heparin. Synthetic human Δβ1-42 was dissolved in 100 mM NaOH and diluted to 200 μM in low salt buffer (10 mM K3PO4, pH 7.4, 10 mM NaCl). Aggregation was performed for 6 h at 37° C. under constant agitation.
Purified GST-Ex1Q48-CyPet and GST-Ex1Q48-YPet were diluted in aggregation buffer at an equimolar ratio to a final concentration of 1.2 μM (0.6 μM each) with 14 U PSP per nmol sensor proteins if not stated otherwise. […] For quantification of seeding-competent HTT species in tissue samples, the sensor-protein mixture was supplemented with up to 10% (v/v) tissue homogenate. Fluorescence signals were measured every 20 min following a 5 s pulse of vertical shaking with a Tecan M200 fluorescence plate reader at 25° C. for up to 48 h. CyPet donor fluorescence was measured at excitation (Ex): 435 nm/emission (Em): 475 nm; YPet acceptor fluorescence at Ex: 500 nm/Em: 530 nm; the FRET channel (DA) was recorded at Ex: 435 nm/Em: 530 nm. Raw signals were processed by subtracting the background fluorescence of unlabeled Ex1Q48 in all channels. […] In brief, the FRET efficiency E (in %) was calculated as follows: E=(DA-cDxDD-cAxAA)/AA with DD=donor channel signal and AA=acceptor channel signal.
Seeding effects (Δt50 [h]) were quantified by subtracting the t50 values (time at half-maximal FRET efficiency) of the respective sample from the negative control. […]

Compound	HTTex1Q48 seeding activity (HSA, Δt50) after pre-incubation of seeds (HTTex1Q48 seeds)	influence on Ex1Q48-CyPet/-YPet polymerization (Ex1Q48-CyPet/-YPet)	effect on sensor protein aggregation (sensor proteins)	interference with the aggregation of HTTex1Q48 (HTTex1Q48)
amyloid-β: synthetic human Aβ1-42 aggregated in vitro		did not significantly influence		
tau: recombinant Tau40 protein aggregated in the presence of heparin		did not significantly influence		

More lines, main results first:

HTTex1Q48 seeding activity (HSA, Δt50) after pre-incubation of seeds (HTTex1Q48 seeds)	influence on Ex1Q48-CyPet/-YPet polymerization (Ex1Q48-CyPet/-YPet)	Compound	effect on sensor protein aggregation (sensor proteins)	interference with the aggregation of HTTex1Q48 (HTTex1Q48)
strongly reduces		O=c1cc2oc3cc(O)c(-c4ccc(O)cc4O)cc3nc-2cc1-c1ccc(O)cc1O [O4]	no significant effect	interfere with the aggregation
	did not significantly influence	IAPP: synthetic human islet amyloid polypeptide aggregated in vitro (KCNTATCATQRLANFLVHSSNNFGAILSSTNVGSNTY)		
	did not significantly influence	α-synuclein		
